Source: US9938261B2, “Heterocyclic compounds and methods of use thereof” (AMBIT BIOSCIENCES CORPORATION, priority 2011, dated 2018)

Tests used:
FLT3 = molecular target: T1, FLT3 (Homo sapiens, UniProt P36888); assay: Competition binding assay, FLT3 Kd; conditions: competition binding
T1 construct: made in house
T1 sequence (P36888 27-993): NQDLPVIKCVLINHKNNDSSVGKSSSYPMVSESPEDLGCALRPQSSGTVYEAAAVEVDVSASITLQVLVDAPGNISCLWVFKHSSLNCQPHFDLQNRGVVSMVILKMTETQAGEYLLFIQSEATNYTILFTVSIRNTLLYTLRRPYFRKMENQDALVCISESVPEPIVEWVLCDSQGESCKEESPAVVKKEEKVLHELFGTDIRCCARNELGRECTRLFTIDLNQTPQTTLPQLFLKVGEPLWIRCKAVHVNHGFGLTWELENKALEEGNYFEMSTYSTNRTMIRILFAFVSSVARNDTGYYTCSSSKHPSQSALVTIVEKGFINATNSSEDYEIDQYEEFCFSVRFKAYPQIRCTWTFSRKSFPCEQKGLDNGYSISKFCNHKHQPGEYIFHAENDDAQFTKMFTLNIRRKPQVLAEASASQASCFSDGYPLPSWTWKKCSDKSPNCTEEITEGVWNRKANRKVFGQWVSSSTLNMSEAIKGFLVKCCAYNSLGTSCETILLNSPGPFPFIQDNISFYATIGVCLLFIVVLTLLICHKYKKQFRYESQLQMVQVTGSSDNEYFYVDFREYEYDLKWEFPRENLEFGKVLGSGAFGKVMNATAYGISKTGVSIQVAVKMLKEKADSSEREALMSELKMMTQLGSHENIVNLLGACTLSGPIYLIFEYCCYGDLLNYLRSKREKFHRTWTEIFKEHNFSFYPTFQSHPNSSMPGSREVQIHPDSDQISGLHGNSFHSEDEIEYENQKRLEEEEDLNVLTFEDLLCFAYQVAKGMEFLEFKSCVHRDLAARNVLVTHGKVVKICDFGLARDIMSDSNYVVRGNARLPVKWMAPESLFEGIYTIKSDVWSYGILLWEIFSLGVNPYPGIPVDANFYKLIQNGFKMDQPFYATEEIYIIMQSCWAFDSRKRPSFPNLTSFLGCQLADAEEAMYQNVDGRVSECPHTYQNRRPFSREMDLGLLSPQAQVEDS
Outline: (§1)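 Phage-fused or HEK-293/DNA-tagged kinase + ligand-coated streptavidin beads + compound, 1 h RT with shaking. Wash, elute with free ligand 30 min RT, qPCR of eluted kinase. Kd: 11-point 3-fold series.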

KIT = molecular target: T2, KIT (Homo sapiens, UniProt P10721); assay: Competition binding assay, KIT Kd; conditions: competition binding
T2 construct: made in house
Outline: as §1

PDGFRβ = molecular target: T3, PDGFRβ (Homo sapiens, UniProt P09619); assay: Competition binding assay, PDGFRβ Kd; conditions: competition binding
T3 construct: made in house
Outline: as §1

M-NFS-60 cells = assay: M-NFS-60 cell proliferation assay (Alamar Blue); assay type: cell-based, mouse; conditions: Mus musculus; M-NFS-60 cell proliferation; read-out: CSF1R M-NFS-60 CTB:IC50
Outline: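 Alamar Blue reduction (3 h; 560/590 nm) measured viability after 72 h, 37 °C treatment with nine half-log compound concentrations at 0.5% DMSO. Cells: M-CSF-dependent (20 ng/mL) murine M-NFS-60 in RPMI plus 10% FBS. IC50s, averaged from duplicates, reflect half-maximal inhibition of proliferation relative to control.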

[1] = molecular target: kinase panel containing either 386 or 392 distinct kinases; assay: Kinase selectivity score S10 from competition binding panel; conditions: 10 μM, panel of 386 or 392 distinct kinases
Outline: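 S10 is the number of kinases with percent-of-control under 10, divided by all distinct wild-type kinases tested, from a single 10 μM concentration. Binding measured by qPCR of kinase recovered from ligand-coated beads after 1 h equilibrium at room temperature; kinases were phage fusions or DNA-tagged HEK-293 products.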

CSF1R = CSF1R (Homo sapiens, UniProt P07333); assay: Competition binding assay, CSF1R Kd; set-up: made in house; conditions: competition binding
Outline: as §1

Chain of CSF1R (P07333 20-972): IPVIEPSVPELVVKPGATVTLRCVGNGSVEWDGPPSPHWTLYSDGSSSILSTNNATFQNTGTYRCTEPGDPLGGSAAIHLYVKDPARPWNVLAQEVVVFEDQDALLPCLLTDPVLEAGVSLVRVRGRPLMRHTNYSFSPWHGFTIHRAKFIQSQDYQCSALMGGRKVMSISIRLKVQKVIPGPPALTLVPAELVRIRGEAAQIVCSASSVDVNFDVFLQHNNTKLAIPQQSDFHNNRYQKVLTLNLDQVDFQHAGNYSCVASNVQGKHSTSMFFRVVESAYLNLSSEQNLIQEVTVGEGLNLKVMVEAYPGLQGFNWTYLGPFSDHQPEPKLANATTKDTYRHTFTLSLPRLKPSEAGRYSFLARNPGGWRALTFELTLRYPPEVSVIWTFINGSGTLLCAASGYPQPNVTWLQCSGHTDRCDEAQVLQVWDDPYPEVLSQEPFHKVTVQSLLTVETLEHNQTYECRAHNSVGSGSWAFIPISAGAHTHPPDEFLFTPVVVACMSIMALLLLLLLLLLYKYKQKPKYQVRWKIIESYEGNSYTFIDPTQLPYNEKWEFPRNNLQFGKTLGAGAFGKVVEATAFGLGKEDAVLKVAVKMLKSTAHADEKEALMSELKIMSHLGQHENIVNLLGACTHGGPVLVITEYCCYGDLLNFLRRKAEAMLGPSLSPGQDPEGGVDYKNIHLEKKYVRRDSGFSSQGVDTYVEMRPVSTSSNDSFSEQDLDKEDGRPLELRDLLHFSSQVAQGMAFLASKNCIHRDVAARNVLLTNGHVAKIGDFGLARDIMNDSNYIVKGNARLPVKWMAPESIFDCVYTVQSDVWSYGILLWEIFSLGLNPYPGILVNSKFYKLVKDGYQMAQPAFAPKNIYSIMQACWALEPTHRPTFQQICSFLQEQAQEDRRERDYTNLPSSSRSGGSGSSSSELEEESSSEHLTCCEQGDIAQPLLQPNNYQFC
T3 sequence (P09619 33-1106): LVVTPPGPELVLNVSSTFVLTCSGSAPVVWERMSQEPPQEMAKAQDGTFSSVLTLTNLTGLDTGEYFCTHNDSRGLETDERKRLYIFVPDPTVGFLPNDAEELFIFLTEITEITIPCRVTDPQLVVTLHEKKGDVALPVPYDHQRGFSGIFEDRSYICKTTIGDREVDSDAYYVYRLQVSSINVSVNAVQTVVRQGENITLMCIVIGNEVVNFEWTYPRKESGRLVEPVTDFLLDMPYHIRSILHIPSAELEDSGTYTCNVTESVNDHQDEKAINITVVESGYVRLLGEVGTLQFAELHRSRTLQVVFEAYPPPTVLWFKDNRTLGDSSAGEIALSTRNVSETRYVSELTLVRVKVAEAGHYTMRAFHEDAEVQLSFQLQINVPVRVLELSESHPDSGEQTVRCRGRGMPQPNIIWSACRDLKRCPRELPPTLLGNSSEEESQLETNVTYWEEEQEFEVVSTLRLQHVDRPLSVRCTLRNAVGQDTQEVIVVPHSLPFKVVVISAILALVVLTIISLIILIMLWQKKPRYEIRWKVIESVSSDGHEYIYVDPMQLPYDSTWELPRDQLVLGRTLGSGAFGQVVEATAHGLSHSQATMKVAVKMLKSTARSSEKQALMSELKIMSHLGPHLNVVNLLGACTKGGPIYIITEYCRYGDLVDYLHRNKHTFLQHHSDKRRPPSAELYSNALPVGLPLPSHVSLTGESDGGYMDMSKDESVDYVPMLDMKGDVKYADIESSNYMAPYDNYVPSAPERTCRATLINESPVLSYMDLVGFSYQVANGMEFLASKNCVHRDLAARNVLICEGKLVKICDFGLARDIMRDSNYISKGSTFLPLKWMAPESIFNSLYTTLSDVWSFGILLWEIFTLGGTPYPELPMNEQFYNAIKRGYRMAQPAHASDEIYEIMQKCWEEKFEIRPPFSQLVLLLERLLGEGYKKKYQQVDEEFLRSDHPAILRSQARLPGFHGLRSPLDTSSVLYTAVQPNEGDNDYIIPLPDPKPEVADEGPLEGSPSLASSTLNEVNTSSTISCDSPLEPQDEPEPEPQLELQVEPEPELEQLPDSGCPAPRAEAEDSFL
T2 sequence (P10721 26-976): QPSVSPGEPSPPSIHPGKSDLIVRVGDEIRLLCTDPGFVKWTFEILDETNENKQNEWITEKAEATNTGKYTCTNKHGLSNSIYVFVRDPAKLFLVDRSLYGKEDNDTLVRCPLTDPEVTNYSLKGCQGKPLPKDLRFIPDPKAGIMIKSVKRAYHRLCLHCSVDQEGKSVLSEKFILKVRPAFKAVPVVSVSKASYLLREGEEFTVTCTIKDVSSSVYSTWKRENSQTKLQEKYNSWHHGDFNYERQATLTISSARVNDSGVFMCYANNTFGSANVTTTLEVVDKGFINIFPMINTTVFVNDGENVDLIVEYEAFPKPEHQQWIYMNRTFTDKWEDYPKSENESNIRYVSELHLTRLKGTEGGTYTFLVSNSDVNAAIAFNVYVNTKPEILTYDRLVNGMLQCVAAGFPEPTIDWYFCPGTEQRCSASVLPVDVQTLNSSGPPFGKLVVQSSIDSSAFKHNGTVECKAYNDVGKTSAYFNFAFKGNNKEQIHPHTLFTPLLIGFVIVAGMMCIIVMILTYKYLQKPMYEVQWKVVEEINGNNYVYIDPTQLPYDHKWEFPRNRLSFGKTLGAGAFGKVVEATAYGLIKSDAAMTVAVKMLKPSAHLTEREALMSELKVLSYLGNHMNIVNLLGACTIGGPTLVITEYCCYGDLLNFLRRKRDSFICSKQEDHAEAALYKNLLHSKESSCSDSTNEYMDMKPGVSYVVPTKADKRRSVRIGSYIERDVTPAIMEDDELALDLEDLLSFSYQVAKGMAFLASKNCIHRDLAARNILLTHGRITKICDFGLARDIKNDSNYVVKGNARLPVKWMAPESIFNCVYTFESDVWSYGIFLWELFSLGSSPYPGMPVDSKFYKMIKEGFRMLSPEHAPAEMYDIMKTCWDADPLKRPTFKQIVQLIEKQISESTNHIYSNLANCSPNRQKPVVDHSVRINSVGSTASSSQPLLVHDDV

SMILES	Kd (FLT3)	Kd (KIT)	Kd (PDGFRβ)	Kinase specificity S(10) [1]	Kd (CSF1R)	IC50 (M-NFS-60 cells)
CN1CCN(c2ccn3c(Cc4ccc5nc(N[C@@H]6CCCC[C@H]6O)sc5c4)cnc3c2)CC1 [Example 188, (1R,2R)-2-((6-((7-(4-methylpiperazin-1-yl)imidazo[1,2-a]pyridin-3-yl)methyl)benzo[d]thiazol-2-yl)amino)cyclohexanol]	1000 to 5000 nM	> 2000 nM	500 to 2000 nM	A (A≤0.01)	5 to 20 nM	400 to 1500 nM
CS[C@@H]1CCCC[C@H]1Nc1nc2ccc(Cn3cnc4cc(F)cnc43)cc2s1 [Example 181, 6-((6-fluoro-3H-imidazo[4,5-b]pyridin-3-yl)methyl)-N-((1R,2R)-2-(methylthio)cyclohexyl)benzo[d]thiazol-2-amine]	1000 to 5000 nM	100 to 500 nM	≤ 50 nM	B (0.01<B≤0.02)	5 to 20 nM	400 to 1500 nM
OC[C@H]1CC[C@@H](Nc2nc3ccc(Cn4cnc5cc(F)cnc54)cc3s2)CC1 [Example 180, (cis-4-((6-((6-fluoro-3H-imidazo[4,5-b]pyridin-3-yl)methyl)benzo[d]thiazol-2-yl)amino)cyclohexyl)methanol]	1000 to 5000 nM	100 to 500 nM	50 to 500 nM	A (A≤0.01)	20 to 50 nM	> 1500 nM
Fc1cnc2c(c1)ncn2Cc1ccc2nc(Nc3ccccc3)sc2c1 [Example 191, 6-((6-fluoro-3H-imidazo[4,5-b]pyridin-3-yl)methyl)-N-phenylbenzo[d]thiazol-2-amine]	1000 to 5000 nM	100 to 500 nM	500 to 2000 nM	A (A≤0.01)	20 to 50 nM	> 1500 nM
O[C@@H]1CCCC[C@H]1Nc1nc2ccc(Cn3cnc4cc(C5=CCCCC5)ccc43)cc2s1 [Example 184, (1R,2R)-2-((6-((5-(cyclohex-1-en-1-yl)-1H-benzo[d]imidazol-1-yl)methyl)benzo[d]thiazol-2-yl)amino)cyclohexanol]	200 to 1000 nM	≤ 100 nM	50 to 500 nM	A (A≤0.01)	5 to 20 nM	50 to 400 nM
CN1CCN(c2ccc3ncc(Cc4ccc5nc(N[C@@H]6CCCC[C@H]6O)sc5c4)n3n2)CC1 [Example 178, (1R,2R)-2-((6-((6-(4-methylpiperazin-1-yl)imidazo[1,2-b]pyridazin-3-yl)methyl)benzo[d]thiazol-2-yl)amino)cyclohexanol]	200 to 1000 nM	500 to 2000 nM	500 to 2000 nM	B (0.01<B≤0.02)	5 to 20 nM	400 to 1500 nM
O[C@@H]1CCCC[C@H]1Nc1nc2ccc(Cn3cnc4cc(OC5COC5)ccc43)cc2s1 [Example 182, (1R,2R)-2-((6-((5-(oxetan-3-yloxy)-1H-benzo[d]imidazol-1-yl)methyl)benzo[d]thiazol-2-yl)amino)cyclohexanol]	200 to 1000 nM	100 to 500 nM	50 to 500 nM	A (A≤0.01)	≤ 5 nM	50 to 400 nM

Second part, led by results:

Kd (FLT3)	Kd (KIT)	Kd (PDGFRβ)	Kinase specificity S(10) [1]	Kd (CSF1R)	SMILES	IC50 (M-NFS-60 cells)
200 to 1000 nM	≤ 100 nM	50 to 500 nM	B (0.01<B≤0.02)	≤ 5 nM	C=Cc1ccc2c(c1)ncn2Cc1ccc2nc(N[C@@H]3CCCC[C@H]3O)sc2c1 [Example 183, (1R,2R)-2-((6-((5-vinyl-1H-benzo[d]imidazol-1-yl)methyl)benzo[d]thiazol-2-yl)amino)cyclohexanol]	≤ 50 nM
200 to 1000 nM	500 to 2000 nM	500 to 2000 nM	A (A≤0.01)	5 to 20 nM	Cc1cc(C)c2c(c1)ncn2Cc1ccc2nc(N[C@@H]3CCCC[C@H]3O)sc2c1 [Example 189]	50 to 400 nM
≤ 200 nM	≤ 100 nM	≤ 50 nM	C (C>0.02)	≤ 5 nM	O[C@@H]1CCCC[C@H]1Nc1nc2ccc(Cc3cnc4ccc(Br)nn34)cc2s1 [Example 177, (1R,2R)-2-((6-((6-bromoimidazo[1,2-b]pyridazin-3-yl)methyl)benzo[d]thiazol-2-yl)amino)cyclohexanol]	≤ 50 nM
200 to 1000 nM	500 to 2000 nM	500 to 2000 nM	A (A≤0.01)	5 to 20 nM	O[C@@H]1CCCC[C@H]1Nc1nc2ccc(Cn3cnc4cnc(C(F)(F)F)nc43)cc2s1 [Example 105, (1R,2R)-2-((6-((2-(trifluoromethyl)-9H-purin-9-yl)methyl)benzo[d]thiazol-2-yl)amino)cyclohexanol]	400 to 1500 nM
≤ 200 nM	100 to 500 nM	50 to 500 nM	B (0.01<B≤0.02)	5 to 20 nM	O[C@@H]1CCCC[C@H]1Nc1nc2ccc(Cc3cnc4cccc(F)n34)cc2s1 [Example 186, (1R,2R)-2-((6-((5-fluoroimidazo[1,2-a]pyridin-3-yl)methyl)benzo[d]thiazol-2-yl)amino)cyclohexanol]	400 to 1500 nM
